The values that follow come from publication PMC4786016 (Environmental science & technology, 2015).

In data set [1] the test system is PPARγ2. As to conditions: PPARγ2, U2OS reporter assay; cited from earlier work. In general terms: A reporter such as luciferase makes a cellular process visible.
Data set [2] has as its target T1, human PPARγ1 (Homo sapiens, UniProt P37231). The experiment in a line: GeneBLAzer PPARγ1 non-DA reporter gene assay.
For data set [3], the target named is T1, human PPARγ1.
The subject of data set [4] is PPARγ. Particulars: cited from earlier work.

`Brc1ccc(Oc2ccc(Br)cc2Br)c(Br)c1` [BDE47, 2,2′,4,4′-tetrabromodiphenyl ether]: in data set [1], the 5% induction concentration was 10 µM. Moreover, in data set [2], the “EC15 (concentration inducing 15% activation)” value was 5.2 µM; the “EC20 (concentration inducing 20% activation)” value stood at 7 µM; the “[ATVmax]: concentration of the tested compounds to induce the maximal activation%” value (shortened to “[ATVmax] … to induce the maximal activation%”) was found to be 7 µM; the “efficacy (qualitative, based on ATVmax)” value is on record as “++ (key: + 7–20%; ++ 20–30%; +++ 30–40%; ++++ 40–50%; +++++ >50%)”. Also, the Emax in data set [2] (HEK293, read-out: ATVmax: maximal activation% of the tested compounds relative to rosiglitazone) was determined as 20%. In addition, in data set [3], the no observed adverse effect level (NOAEL) (as a rule, the highest dose or exposure tested at which no adverse effect was seen) came out at 0.8 µM.

As to `Oc1c(Br)ccc(Oc2ccc(Br)cc2Br)c1Br` [3-OH-BDE47, 3-hydroxide-2,2′,4,4′-tetrabromodiphenyl ether (metabolite)], in data set [2], the “ATVmax: maximal activation% of the tested compounds relative to rosiglitazone” value came to 42%, the “EC15 (concentration inducing 15% activation)” value came out at 2.01 µM, the “EC20 (concentration inducing 20% activation)” value was 2.993 µM and the “[ATVmax] … to induce the maximal activation%” value came to 7 µM. In addition, in data set [2], the “concentration at which the compound began to activate PPARγ1” value stood at 0.8 µM and the “efficacy (qualitative, based on ATVmax)” value is on record as “++++ (key: + 7–20%; ++ 20–30%; +++ 30–40%; ++++ 40–50%; +++++ >50%)”. Besides, the “PPARγ binding potency (in words)” value in data set [4] is recorded as “comparable binding potency to rosiglitazone”. The compound further showed an NOAEL in data set [3] of 0.8 µM.

For the compound tri(2-butoxyethanol) phosphate [TBOEP], in data set [2], the “ATVmax: maximal activation% of the tested compounds relative to rosiglitazone” value amounted to 13%; the “[ATVmax] … to induce the maximal activation%” value came to 11 µM; the “efficacy (qualitative, based on ATVmax)” value is recorded as “+ (key: + 7–20%; ++ 20–30%; +++ 30–40%; ++++ 40–50%; +++++ >50%)”. Moreover, the “PPARγ binding potency (in words)” value in data set [4] is “significant binding potential at the highest dose level tested”.
